The source of these data is PubChem BioAssay (NCI).

Among the test systems are OVCAR-8 ovarian; UO-31 renal; NCI-H522 lung; RXF 393 renal; NCI-H23 lung; EKVX NSCLC; OVCAR-5 ovarian; CAKI-1 renal; BT-549 breast; MCF7 breast.
What all share (assay): NCI-60 cell line screen, 48 h

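Tested at 5 concentrations; 48 h exposure; 96-well plates; endpoints linearly interpolated, else capped at highest concentration. GI50 = concentration required for 50% inhibition of growth. TGI denotes the concentration required for complete inhibition of growth.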

Take `COc1ccc(C(=O)C(C(=O)CCC(=O)Nc2ccc(Cl)c(Cl)c2)c2ccc(OC)cc2)cc1` (stereo not drawn): the TGI in the experiment on OVCAR-8 ovarian, with UO-31 renal, with NCI-H522 lung, in the experiment with RXF 393 renal, in the experiment on NCI-H23 lung and in the experiment with EKVX NSCLC was over 100 µM in each case. In addition, the TGI in the experiment on OVCAR-5 ovarian and with CAKI-1 renal was over 100 µM each time.

On to `C/C(CN1C(=O)c2ccccc2C1=O)=N\NS(=O)(=O)c1ccc2ccccc2c1`, for which the TGI in the experiment on OVCAR-8 ovarian, with UO-31 renal, with NCI-H522 lung, in the experiment with NCI-H23 lung, with EKVX NSCLC and with OVCAR-5 ovarian was over 100 µM throughout. The same compound gave a TGI with CAKI-1 renal of over 100 µM.

Turning to `O=C(/C=C/c1ccccc1)NC1C=Nc2ccc([N+](=O)[O-])cc2NC1=O` (stereo not drawn), the TGI in the experiment with OVCAR-8 ovarian, with UO-31 renal, with NCI-H522 lung, with RXF 393 renal, in the experiment on NCI-H23 lung and in the experiment on EKVX NSCLC was over 100 µM in each case. Besides, the TGI with OVCAR-5 ovarian and with CAKI-1 renal was over 100 µM throughout.

For the compound `COc1cccc2c1nc(C(F)F)n2-c1nc(-c2ccc(NS(=O)(=O)CCN(C)C)cc2)nc(N2CCOCC2)n1`, the GI50 is 0.295 µM with OVCAR-8 ovarian; 0.314 µM in the experiment with BT-549 breast; 0.0659 µM in the experiment on UO-31 renal; 0.081 µM in the experiment with NCI-H522 lung; 0.105 µM in the experiment on RXF 393 renal; 0.206 µM in the experiment with NCI-H23 lung. The GI50 was 0.0712 µM in the experiment with EKVX NSCLC, 0.0909 µM in the experiment with OVCAR-5 ovarian and 0.168 µM in the experiment with CAKI-1 renal. In addition, the TGI in the experiment with OVCAR-8 ovarian was over 41.1 µM; in the experiment with BT-549 breast, 16 µM; with UO-31 renal it was 1.1 µM; in the experiment on NCI-H522 lung, 1.26 µM; in the experiment with RXF 393 renal, 0.58 µM; in the experiment with NCI-H23 lung it was 23.3 µM. Besides, the TGI came to 1.7 µM in the experiment on EKVX NSCLC, 17.3 µM with OVCAR-5 ovarian and 4.69 µM in the experiment on CAKI-1 renal.

As for `CN(C)CCC(N)(P(=O)([O-])[O-])P(=O)([O-])[O-].N.N.[Pt+2]`, the GI50 in the experiment with OVCAR-8 ovarian, in the experiment on UO-31 renal, with NCI-H522 lung, in the experiment with RXF 393 renal, in the experiment with EKVX NSCLC and in the experiment on OVCAR-5 ovarian was over 100 µM throughout. The GI50 in the experiment on CAKI-1 renal is over 100 µM. The TGI with OVCAR-8 ovarian, in the experiment with UO-31 renal, with NCI-H522 lung, in the experiment on RXF 393 renal, with EKVX NSCLC and in the experiment with OVCAR-5 ovarian was over 100 µM in each case. The TGI in the experiment with CAKI-1 renal is over 100 µM.

Take `CCN(CC)CC(=O)NC1c2ccccc2Oc2ccccc21`: the TGI with OVCAR-8 ovarian, in the experiment on UO-31 renal, in the experiment with RXF 393 renal, in the experiment with NCI-H23 lung, in the experiment on EKVX NSCLC and in the experiment on OVCAR-5 ovarian was over 100 µM throughout.

With `O=C1C2C3CC4C5C3C1C5C1(SCCS1)C42` (stereo not drawn), the TGI in the experiment on OVCAR-8 ovarian, in the experiment on UO-31 renal, in the experiment on NCI-H522 lung, with RXF 393 renal and in the experiment with CAKI-1 renal was over 100 µM each time.

As for `COC(=O)C(=O)C(C#N)c1nc2ccccc2s1` (stereo not drawn), the TGI in the experiment with OVCAR-8 ovarian, with UO-31 renal, with NCI-H522 lung, in the experiment with RXF 393 renal, in the experiment with NCI-H23 lung and in the experiment with EKVX NSCLC was over 100 µM each time. The TGI in the experiment on OVCAR-5 ovarian and in the experiment on CAKI-1 renal was over 100 µM each time.

Consider `O=C([CH-]C(=O)c1ccccc1)c1ccccc1.O=C([CH-]C(=O)c1ccccc1)c1ccccc1.O=C([CH-]C(=O)c1ccccc1)c1ccccc1.[Ga+3]`, for which the GI50 in the experiment on OVCAR-8 ovarian was over 100 µM; in the experiment on UO-31 renal, 30.2 µM; in the experiment on NCI-H522 lung, 19.3 µM; with RXF 393 renal it was 43.7 µM; with NCI-H23 lung, 47.4 µM; with OVCAR-5 ovarian, over 100 µM. In addition, in the experiment with CAKI-1 renal, the GI50 was 67 µM. In addition, the TGI with OVCAR-8 ovarian is over 100 µM; in the experiment with UO-31 renal, over 100 µM; in the experiment with NCI-H522 lung, 68.6 µM; with RXF 393 renal it was over 100 µM; with NCI-H23 lung, over 100 µM; in the experiment with OVCAR-5 ovarian it was over 100 µM. The TGI with CAKI-1 renal was over 100 µM.

As to `COc1ccc2c(c1)[C@@H](NC(C)=O)CCc1cc(OC)c(OC)c(OC)c1-2`, the TGI was 1.27 µM with OVCAR-8 ovarian; over 100 µM with UO-31 renal; over 8.58 µM in the experiment on RXF 393 renal; 2.88 µM in the experiment on NCI-H23 lung; over 100 µM with EKVX NSCLC; over 100 µM with OVCAR-5 ovarian. Also, the TGI in the experiment on CAKI-1 renal was 99 µM; in the experiment with MCF7 breast, over 100 µM.

`CC(=O)C1(O)CC2(c3ccccc3)C(=O)C1(c1ccccc1)C(c1ccccc1)=C2c1ccccc1` (stereo not drawn): the TGI in the experiment on OVCAR-8 ovarian, with UO-31 renal, in the experiment on NCI-H522 lung, in the experiment on RXF 393 renal, with NCI-H23 lung and in the experiment on EKVX NSCLC was over 100 µM in each case. For the same compound, the TGI in the experiment on OVCAR-5 ovarian and in the experiment on CAKI-1 renal was over 100 µM throughout.

On to `COc1nc(NC2OC(COC(C)=O)C(OC(C)=O)C(OC(C)=O)C2OC(C)=O)c(N=CC=Nc2c(NC3OC(COC(C)=O)C(OC(C)=O)C(OC(C)=O)C3OC(C)=O)nc(OC)[nH]c2=O)c(=O)[nH]1` (stereo not drawn), for which the TGI in the experiment with OVCAR-8 ovarian, with UO-31 renal, in the experiment with NCI-H522 lung, in the experiment on NCI-H23 lung, in the experiment on EKVX NSCLC and in the experiment with OVCAR-5 ovarian was over 100 µM each time. In the experiment on CAKI-1 renal, this compound yielded a TGI of over 100 µM.

On to `O=C(CCc1nnc2s/c(=C\c3ccc([N+](=O)[O-])cc3)c(=O)n12)Nc1ccc(Cl)c(Cl)c1`, for which the TGI was 38.9 µM in the experiment on OVCAR-8 ovarian; over 100 µM in the experiment on UO-31 renal; 32.3 µM with NCI-H522 lung; 34.6 µM in the experiment on RXF 393 renal; 75.6 µM in the experiment on NCI-H23 lung; over 100 µM with OVCAR-5 ovarian. In the experiment on CAKI-1 renal, this compound returned a TGI of over 100 µM.
